Results as given in publication PMC7093798 (Data in Brief, 2019).

Tested on: aminopyrine N-demethylase activity (CYP)
Assay: CYP inhibition: aminopyrine N-demethylase
Assay type: in vitro ADME, rat
Conditions: RLM, 1–100 μM

Q: Which “AND inhibitory activity (in words)” value does the source give for `O=C(/C=C/c1cccnc1)NCCCCC1CCN(C(=O)c2ccccc2)CC1` [FK866] here?
A: The value was “mild AND inhibitory activity only at 100 μM concentration”.
